This is an account of results in patent publication US9868935B2, “Composition and method of stem cells for preservation of cardiac tissue” (CRIOESTAMINAL, SAÚDE E TECNOLOGIA, SA., priority 2012, dated 2018).

The subject of one data set is CD34+ cells. The data set is described as follows: Antagonist pretreatment and LPA-induced CD34+ cell survival in hypoxia (Annexin V/PI FACS). The data set is classed as cell-based, human. Particulars: hypoxia 24 h; for effect of antagonist on pro-survival effect of LPA: antagonist 1 h pretreatment + LPA 100 μM. The protocol: FIG. 5—LPA induces CD34+ cell survival mainly through peroxisome proliferator-activator receptor (PPAR). Cells were cultured in serum free medium with LPA. Cells were pretreated with Rho kinase inhibitor (Y-2762, 50 μM), mitogen-activated protein kinase (MAPK) inhibitor (PD98059, 60 μM), LPA1- and LPA3-specific inhibitor (Ki16425, 10 μM), or peroxisome proliferator-activator receptor g (PPARg) inhibitor (GW9662, 50 μM) for 1 hour before hypoxia and cell medium containing LPA (100 μM) for 24 h. Cells without any pretreatment and cultured in serum free medium with or without LPA, in hypoxia for 24 h, were used as positive and negative controls, respectively. Results are average±SEM (n=3-6). * Denote statistical significance: *P<0.05, **P<0.01, […].
The biological roles of LPA are diverse and include developmental, physiological, and pathophysiological effects (Lin, M. E., D. R. Herr, and J. Chun, Lysophosphatidic acid (LPA) receptors: signaling properties and disease relevance. Prostaglandins Other Lipid Mediat, 2010. 91(3-4): p. 130-8). To date up to five LPA receptors (LPARs) have been identified: LPA1-LPA5 (Choi, J. W., et al., LPA receptors: subtypes and biological actions. Annu Rev Pharmacol Toxicol, 2010. 50: p. 157-86). The receptors are G protein-coupled receptors (GPCRs) and their presence can be found in multiple tissues. LPA1, LPA2 and LPA3 are widely expressed in most tissues (Ishii, I., et al., Functional comparisons of the lysophosphatidic acid receptors, LP(A1)/VZG-1/EDG-2, LP(A2)/EDG-4, and LP(A3)/EDG-7 in neuronal cell lines using a retrovirus expression system. Mol Pharmacol, 2000. 58(5): p. 895-902). LP4 is expressed in specific organs, such as the pancreas, ovaries and thymus (Lee, C. W., et al., LPA(4)/GPR23 is a lysophosphatidic acid (LPA) receptor utilizing G(s)-, G(q)/G(i)-mediated calcium signaling and G(12/13)-mediated Rho activation. J Biol Chem, 2007. 282(7): p. 4310-7). LPA5 is expressed at low levels in multiple tissues (Lee, C. W., et al., GPR92 as a new G12/13- and Gq-coupled lysophosphatidic acid receptor that increases cAMP, LPA5. J Biol Chem, 2006. 281(33): p. 23589-97). To identify the receptor that is mediating the pro-survival effect of LPA (100 μM), was used Ki16425 (10 μM), an LPA1- and LPA3-specific antagonist, and GW9662 (50 μM), an antagonist of peroxisome proliferator-activator receptor γ (PPAR γ). Studies indicate that LPA has a high affinity by this last receptor (McIntyre, T. M., et al., Identification of an intracellular receptor for lysophosphatidic acid (LPA): LPA is a transcellular PPARgamma agonist. Proc Natl Acad Sci USA, 2003. 100(1): p. 131-6; Gustin, C., M. Van Steenbrugge, and M. Raes, LPA modulates monocyte migration directly and via LPA-stimulated endothelial cells. Am J Physiol Cell Physiol, 2008. 295(4): p. C905-14). This approach was complemented, by inhibiting downstream targets of the receptors including Rho kinase and mitogen-activated protein kinase (MAPK) using Y-2762 (50 μM) and PD98059 (60 μM) antagonists, respectively. It is known that all LPARs couple with and activate G proteins, which in turn activate MAPK (LPA1, LPA2, LPA3 and LPA4) and Rho kinase (LPA1, LPA2, LPA4 and LPA5) (Choi, J. W., et al., LPA receptors: subtypes and biological actions. Annu Rev Pharmacol Toxicol, 2010. 50: p. 157-86). Cells were treated for 1 h in X-Vivo medium containing a specific antagonist followed by culture under hypoxia conditions for 24 h. Cell survival was assessed by FACS analysis after Annexin V/PI staining. […] The number of viable cells decreased from 77% (+LPA) to 67% (P<0.01, n=19). […] Because the two signaling pathways are downstream targets of different LPARs (see above), this might indicate different contributions of LPARs in the survival of CD34+ cells.

The subject of data set [1] is human umbilical cord blood derived CD34+ cells. The data set is described as follows: CD34+ cell survival in hypoxia and serum deprived conditions (Annexin V/PI flow cytometry). It is filed as cell-based. Particulars: hypoxia 0.5% O2, 24 h, serum free; P<0.001. The procedure:
In an embodiment, UCB CD34+ cells (1×10^^6 cells/mL) were incubated in X-Vivo media (Lonza) in a hypoxia chamber for 24 h (0.5% of O2 and 5% of CO2), in the presence or absence of pharmacological drugs, for further assessment of cell survival/apoptosis and necrosis by FACS analysis of the expression of annexin V and PI respectively. Preferably, cells were pretreated with the respective drugs for 1 hour before hypoxia, and treatment maintained during hypoxia.
In a preferred embodiment, to identify molecules that promote CD34+ cell survival in hypoxia and serum deprived conditions we developed an assay that uses human umbilical cord blood derived CD34+ cells (2×10^^5 cells per well of a 96-well plate) suspended in X-Vivo medium (used in clinical trials (Schachinger, V., et al., Intracoronary bone marrow-derived progenitor cells in acute myocardial infarction. N Engl J Med, 2006. 355(12): p. 1210-21)) and incubated in a hypoxia chamber at 0.5% O2, at 37° C., for 24 h. Some of the drugs selected have been approved by FDA for the treatment of cardiovascular diseases (e.g. Nebivolol Lombardo, R. M., et al., Effects of nebivolol versus carvedilol on left ventricular function in patients with chronic heart failure and reduced left ventricular systolic function. Am J Cardiovasc Drugs, 2006. 6(4): p. 259-63; Ibersatan Massie, B. M., et al., Irbesartan in patients with heart failure and preserved ejection fraction. N Engl J Med, 2008. 359(23): p. 2456-67), others are being evaluated in pre-clinical/clinical assays to improve heart function in patients/models with heart failure (e.g. INO1001 (Szabo, G., et al., INO-1001 a novel poly(ADP-ribose) polymerase (PARP) inhibitor improves cardiac and pulmonary function after crystalloid cardioplegia and extracorporal circulation. Shock, 2004. 21(5): p. 426-32); erythropoietin (Belonje, A. M., et al., Effects of erythropoietin after an acute myocardial infarction: rationale and study design of a prospective, randomized, clinical trial (HEBE III). Am Heart J, 2008. 155(5): p. 817-22); melatonin (Chen, Z., et al., Protective effect of melatonin on myocardial infarction. Am J Physiol Heart Circ Physiol, 2003. 284(5): p. H1618-24); VX-702 (Ma, X. L., et al., Inhibition of p38 mitogen-activated protein kinase decreases cardiomyocyte apoptosis and improves cardiac function after myocardial ischemia and reperfusion. Circulation, 1999. 99(13): p. 1685-91)), others are natural substances found in the human body (LPA). Cell viability was evaluated by flow cytometry using Annexin V/propidium iodide (PI) staining. Annexin V is a phospholipid-binding protein with specificity for phospatidyl serine, one of the earliest makers of cellular transition to an apoptotic state. This phospholipid is translocated from the inner to the outer leaflet of the plasma membrane (Koopman, G., et al., Annexin V for flow cytometric detection of phosphatidylserine expression on B cells undergoing apoptosis. Blood, 1994. 84(5): p. 1415-20.). PI enters in necrotic cells and binds to double-stranded nucleic acids, but is excluded from cells with normal integrity. According to FIG. 1, untreated CD34+ cells show a very poor survival, with only ˜31% of viable cells, ˜31% of apoptotic cells (Annexin V+/PI−) being the majority of the cells ˜39% at the necrotic stage (PI+). […] LPA (10 μM) was the drug with the highest pro-survival effect (˜69% of viable cells) and therefore further studied (FIGS. 1 and 2A).
Importantly, the percentage of viable cells in CD34+ treated with 1 μM of LPA and cultured under hypoxia conditions is similar to untreated cells cultured under normoxia conditions. The pro-survival effect of LPA decreases as a function of hypoxia time (FIG. 2C). The percentage of viable cells in LPA-treated CD34+ cells decreased from 78% at day 1 to 40% at day 3.
For orientation: A flow cytometer gives signals particle by particle.

SMILES strings stand for the structures.

With `O=C(Nc1ccccc1)c1cc([N+](=O)[O-])ccc1Cl` [GW9662], in the data set with CD34+ cells (GW9662 50 μM 1 h pretreatment + LPA 100 μM, P<0.001, n=11), the “number of viable cells induced by LPA after antagonist” value is recorded as roughly 53%. Moreover, in the data set on CD34+ cells, the “effect of antagonist on pro-survival effect of LPA” value (“effect of antagonist” below) is recorded as “did not block totally the pro-survival effect of LPA”.
`Cc1noc(-c2ccc(CSCCC(=O)O)cc2)c1NC(=O)OC(C)c1ccccc1Cl` (stereo not drawn) [Ki16425]: the “number of viable cells induced by LPA after antagonist” value in the data set with CD34+ cells (Ki16425 10 μM 1 h pretreatment + LPA 100 μM, P<0.01, n=19) was found to be 67%. Also, the “effect of antagonist” value in the data set on CD34+ cells is “relatively small effect”.
Take `COc1cccc(-c2cc(=O)c3ccccc3o2)c1N` [PD98059]: the “effect of antagonist” value in the data set on CD34+ cells is recorded as “suppressed at higher levels the pro-survival effect of LPA than the inhibition of Rho kinase signaling pathway”.
On to `CCCCC[C@H](O)/C=C/[C@H]1[C@H](O)CC(=O)[C@@H]1C/C=C\CCCC(=O)O` [prostaglandin E2, reference compound], for which the “cell survival vs untreated cells” value in data set [1] is recorded as “improved significantly”.
